US20230331707A1, “PROGRAMMED CELL NECROSIS INHIBITOR, PREPARATION METHOD THEREFOR, AND USE THEREOF” (Shanghai Institute of Organic Chemistry, Chinese Academy of …, priority 2020, published 2023)
Where two headings read alike, the source gives them in different places.

Assays:
FADD−/− Jurkat cells = test: Inhibition of TNF-induced programmed necrosis of FADD deficient Jurkat cells (Cell Titer-Glo viability); format: cell-based; details: for EC50: FADD−/− Jurkat cells; for activity of inhibition of programmed necrosis compared with GSK2982772: human FADD-deficient Jurkat cells, TNFα alone or in combination with SM164
Source text: (§1) The adopted biological assay protocol was: the effect of compounds on programmed necroptosis of TNF-induced FADD (Fas-Associated Death Domain) deficient Jurkat cells and L929 cells.
(§2) In order to verify the inhibitory effect of the compounds of the present invention on programmed cell necrosis at the cellular level, cell types that is closely related to the RIP1 pathway, namely FADD deficient Jurkat cells (human peripheral blood leukemia T cell strain) and L929 cells, were selected. Two different stimulation methods were used: tumor necrosis factor (TNFα) was used alone, or TNFα was used in combination with mitochondria-derived cysteine aspartate activator (SMAC) SM164. Cells viability was calculated by detecting chemiluminescence values, thereby obtaining the biological activity of the compound on the inhibition of programmed cell necrosis.
(§3) Methods: FADD deficient Jurkat cells: FADD deficient Jurkat cells (human peripheral blood leukemia T cell line) were cultured in vitro. After growing to the logarithmic growth phase, the cells were collected, centrifuged at 1000 rpm for 5 min, the supernatant was discarded, and the cell concentration was adjusted to 2.5×10^5/mL. Cells were seeded into 384-well plates, 40 μl per well. 5 μL of SM164 (50 nM) diluted in cell culture medium and 5 μL of each compound were added to the corresponding wells. After pretreatment at 37° C. for 1 h, 5 μL of TNFα (50 ng/mL) diluted in cell culture medium was added to each well of the stimulation group, and 5 μL of the culture medium was added to the control group. The plate was cultured in a cell incubator (37° C., 5% CO2) for 14 h, and […] of Cell Titer-Glo solution was added to each well, then incubated for 30 min at room temperature, and intracellular ATP level was measured by detecting luminescence. The unstimulated DMSO control wells were taken as 100% cell viability. L929 cells: The L929 cells (mouse fibroblasts) were cultured in vitro, digested and diluted to 6.25×10^4/ml, and the cells were seeded into 384-well plates, 40 μl per well. The plate was placed in a cell incubator (37° C., 5% CO2) for 12 hours. 5 μL of SM164 (500 nM) diluted in cell culture medium and 5 μL of each compound were added to the corresponding wells. After pretreatment at 37° C. for 1 h, 5 μL of TNFα (500 ng/mL) diluted in cell culture medium was added to each well of the stimulation group, and 5 μL of the culture medium was added to the control group. After the plate was cultured for 14 h in a cell incubator (37° C., 5% CO2), 15 μl of Cell Titer-Glo solution was added to each well. The plate was incubated at room temperature for 30 min, and intracellular ATP level was measured by detecting luminescence. The unstimulated DMSO control wells were taken as 100% cell viability. EC50 values of the compounds were calculated using Prism Graphpad statistical software.

L929 cells = test: Inhibition of TNF-induced programmed necrosis of L929 cells (Cell Titer-Glo viability); format: cell-based, mouse; details: Mus musculus, L929, L929 cells
Source text: as §1, §2, §3

[1] = Homo sapiens, Jurkat, 14 h, stimulated with TNFα + SM164, read-out: EC50 (μM) FADD−/− Jurkat cells (human) TNFα + SM164
[2] = Homo sapiens, Jurkat, stimulated with TNFα alone, read-out: EC50 (μM) FADD−/− Jurkat cells (human) TNFα
[3] = stimulated with TNFα + SM164, read-out: EC50 (μM) L929 cells (mouse) TNFα + SM164
[4] = stimulated with TNFα alone, read-out: EC50 (μM) L929 cells (mouse) TNFα

Compound | EC50 (FADD−/− Jurkat cells; [1]) [nM] | EC50 (FADD−/− Jurkat cells; [2]) [nM] | EC50 (L929 cells; [3]) [nM] | EC50 (L929 cells; [4]) [nM] | EC50 (FADD−/− Jurkat cells; stimulated with TNFα + SM164, read-out: EC50 (μM) FADD−/− Jurkat cells (human) TNFα + SM164) [nM] | EC50 (FADD−/− Jurkat cells; stimulated with TNFα alone, read-out: EC50 (μM) FADD−/− Jurkat cells (human) TNFα) [nM] | activity of inhibition of programmed necrosis compared with GSK2982772 (FADD−/− Jurkat cells)
Nc1ncnc2c1ccn2-c1ccc(CNC(=O)c2cc(Cc3ccccc3)on2)cc1 [QY-8-48] | > 10000 | 972 | > 10000 | > 10000 | – | – | –
Nc1ncnc2c1ccn2-c1ccc(CNC(=O)c2nnn(Cc3ccccc3)n2)cc1 [QY-8-58, N-(4-(4-amino-7H-pyrrolo[2,3-d]pyrimidin-7-yl)benzyl)-2-benzyl-2H-tetrazol-5-carboxamide] | 577 | 196 | > 10000 | > 10000 | – | – | –
Nc1ncnc2c1ccn2-c1ccc(CNC(=O)c2n[nH]c(Cc3ccccc3)n2)cc1 [QY-8-60, N-(4-(4-amino-7H-pyrrolo[2,3-d]pyrimidine-7-yl)benzyl)-5-benzyl-1H-1,2,4-triazol-3-carboxamide] | > 10000 | > 10000 | > 10000 | > 10000 | – | – | –
Nc1ncnc2c1ccn2-c1ccc(CNC(=O)Cc2cccc(OC(F)(F)F)c2)cc1 [QY-9-69, O—N-(4-(4-amino-7H-pyrrolo[2,3-d]pyrimidine-7-yl)benzyl)-2-(3-(trifluoromethoxy)phenyl)acetamide] | > 10000 | > 10000 | > 10000 | 567 | – | – | –
Nc1ncnc2c1ncn2-c1ccc(CNC(=O)Cc2cccc(OC(F)(F)F)c2)cc1 [QY-9-70] | > 10000 | 2960 | 6300 | 350 | – | – | –
Nc1ncnc2c1ncn2-c1ccc(CNC(=O)c2n[nH]c3ncc(C(F)(F)C(F)(F)F)cc23)cc1 [QY-9-77, N-(4-(6-amino-9H-purin-9-yl)benzyl)-5-(perfluoroethyl)-1H-pyrazolo[3,4-b]pyridine-3-carboxamide] | 171 | 9.04 | 5000 | 344 | – | – | –
Cn1nc(C(=O)NCc2ccc(-n3ccc4c(N)ncnc43)cc2)cc1Cc1ccccc1 [QY-10-21, N-(4-(4-amino-7H-pyrrolo[2,3-d]pyrimidin-7-yl)benzyl)-5-benzyl-1-methyl-1H-pyrazol-3-carboxamide] | 299 | 49 | > 10000 | > 10000 | – | – | –
CCn1ncc(C(=O)NCc2ccc(-n3cnc4c(N)ncnc43)cc2)c1Cc1ccccc1 [QY-10-65] | 34.6 | 1.2 | 73.8 | 22.1 | – | – | –
CNC(=O)c1ccc2c(c1)ncn2-c1ccc(CNC(=O)c2cnn(C)c2Cc2ccccc2)cc1 [QY-10-73] | 5.2 | 0.0697 | 76.7 | 20 | – | – | –
Cn1ncc(C(=O)NCc2ccc(-n3cnc4ccc(C(=O)NCCN5CCOCC5)cc43)cc2)c1Cc1ccccc1 [QY-11-68A] | 3.79 | 0.581 | 1.58 | 161 | – | – | –
CN1CCN(CCNC(=O)c2ccc3ncn(-c4ccc(CNC(=O)c5cnn(C)c5Cc5ccccc5)cc4)c3c2)CC1 [QY-11-69A] | 194 | 3 | > 10000 | > 10000 | – | – | –
CN(C)CCNC(=O)c1ccc2ncn(-c3ccc(CNC(=O)c4cnn(C)c4Cc4ccccc4)cc3)c2c1 [QY-11-74A] | 368 | 53 | > 10000 | > 10000 | – | – | –
CN(C)CCNC(=O)c1ccc2c(c1)ncn2-c1ccc(CNC(=O)c2cnn(C)c2Cc2ccccc2)cc1 [QY-11-74B] | 3.73 | 0.293 | 0.687 | 0.386 | – | – | –
COc1cc2ncnc(-c3ccc(CNC(=O)c4cnn(C)c4Cc4ccccc4)cc3)c2cc1OC [QY-11-75] | 1500 | 233 | > 10000 | > 10000 | – | – | –
Cn1ncc(C(=O)NCc2ccc(-c3ccnc4[nH]ccc34)cc2)c1Cc1ccccc1 [QY-11-79] | 747 | 152 | > 10000 | > 10000 | – | – | –
Cn1ncc(C(=O)NCc2ccc(-c3ncnc4[nH]ccc34)cc2)c1Cc1ccccc1 [QY-11-80] | 482 | 35 | 3460 | 1970 | – | – | –
COc1ccc2c(c1)ncn2-c1ccc(CNC(=O)c2cnn(C)c2Cc2ccccc2)cc1 [QY-11-102A] | – | – | 0.0793 | 0.00513 | 0.0649 | 0.00168 | –

Compound | EC50 (FADD−/− Jurkat cells; [1]) [nM] | EC50 (FADD−/− Jurkat cells; [2]) [nM] | EC50 (L929 cells; [3]) [nM] | EC50 (L929 cells; [4]) [nM] | EC50 (FADD−/− Jurkat cells; stimulated with TNFα + SM164, read-out: EC50 (μM) FADD−/− Jurkat cells (human) TNFα + SM164) [nM] | EC50 (FADD−/− Jurkat cells; stimulated with TNFα alone, read-out: EC50 (μM) FADD−/− Jurkat cells (human) TNFα) [nM] | activity of inhibition of programmed necrosis compared with GSK2982772 (FADD−/− Jurkat cells)
COc1ccc2ncn(-c3ccc(CNC(=O)c4cnn(C)c4Cc4ccccc4)cc3)c2c1 [QY-11-102B] | 0.306 | 0.0133 | 0.424 | 0.0278 | – | – | –
CC(NC(=O)c1cnn(C)c1Cc1ccccc1)c1ccc(-n2cnc3c(N)ncnc32)cc1 (stereo not drawn) [QY-12-31] | 0.254 | 0.0967 | 0.569 | 0.356 | – | – | –
CNC(=O)c1ccc2c(c1)ncn2-c1ccc(CNC(=O)c2ccc(F)n2Cc2ccccc2)cc1 [QY-12-47] | 17.4 | 1.74 | 34.4 | 6 | – | – | –
N#Cc1ccc(C(=O)NCc2ccc(-n3cnc4c(N)ncnc43)cc2)n1Cc1ccccc1 [QY-12-51] | 1860 | 214 | 3770 | 875 | – | – | –
CC(c1ccc(-n2cnc3c(N)ncnc32)cc1)N1CCc2nn(C)c(Cc3ccccc3)c2C1=O (stereo not drawn) [QY-12-90] | 0.813 | 0.13 | 42.7 | 2.41 | – | – | –
C[C@@H](NC(=O)c1cnn(C)c1Cc1ccccc1)c1ccc(-n2cnc3c(N)ncnc32)cc1 [QY-12-97] | 132 | 36.1 | 219 | 51.9 | – | – | –
Cn1nc(Cl)c(C(=O)NCc2ccc(-n3cnc4c(N)ncnc43)cc2)c1Cc1ccccc1 [QY-12-100] | 0.734 | 0.172 | 4.63 | 0.458 | – | – | stronger activity
Cn1ncc(C(=O)NC(C)(C)c2ccc(-n3cnc4c(N)ncnc43)cc2)c1Cc1ccccc1 [QY-12-102] | 28.5 | 7.52 | 6960 | 550 | – | – | –
C[C@H](NC(=O)c1c(Cl)nn(C)c1Cc1ccccc1)c1ccc(-n2cnc3c(N)ncnc32)cc1 [QY-13-29] | 0.318 | 0.0916 | 0.462 | 0.317 | – | – | –
C[C@H](NC(=O)c1cnn(C)c1Cc1ccccc1)c1ccc(-n2cnc3c(N)ncnc32)cc1 [QY-13-31] | 0.305 | 0.084 | 0.553 | 0.437 | – | – | stronger activity
C[C@@H](c1ccc(-n2cnc3c(N)ncnc32)cc1)N1CCc2nn(C)c(Cc3ccccc3)c2C1=O [QY-13-33] | 2.85 | 0.296 | 3.02 | 1.32 | – | – | stronger activity
Cn1nnc(C(=O)NCc2ccc(-n3cnc4cc(C#N)ccc43)cc2)c1Cc1ccccc1 [QY-15-59] | – | 0.00767 | 0.001 | 0.001 | – | – | stronger activity
CNC(=O)c1ccc2c(ccn2-c2ccc(CNC(=O)c3ncc(Cc4ccccc4)o3)cc2)c1 [XHJ-2-88] | 380 | 70.1 | 3980 | 831 | – | – | –
CCCn1nc(C(=O)NCc2ccc(-n3cnc4cc(C(=O)NC)ccc43)cc2)cc1Cc1ccccc1 [XHJ-4-48] | 738 | 109 | > 10000 | 3010 | – | – | –
CNC(=O)c1ccc2c(c1)ncn2-c1ccc(CNC(=O)c2cn(Cc3ccccc3)nn2)cc1 [ZSQ-13-35] | 1590 | 233 | > 10000 | > 10000 | – | – | –
CNC(=O)c1ccc2c(c1)ncn2-c1ccc(CNC(=O)c2n[nH]c(Cc3ccccc3)n2)cc1 [ZSQ-13-46] | > 10000 | > 10000 | > 10000 | > 10000 | – | – | –
